This is an account of results in patent publication US7425433B2, “Carboxylic acid reductase polypeptide, nucleotide sequence encoding same and methods of use” (priority 2003, dated 2008).

Where two headings read alike, the source gives them in different places.

Data set [1] deals with T1, carboxylic acid reductase (CAR) (Nocardia iowensis, UniProt Q6RKB1, L218S).
T1 construct: made in house; host or cells: E. coli BL21-CodonPlus(DE3)-RP carrying pHAT-305
Format: biochemical, Nocardia sp. NRRL 5646. The settings on record: for Km: cofactors of purified HAT-CAR, Cleland's kinetics program; for Specific activity: 25° C. The procedure:
Enzyme assay. The standard reaction mixture contained 1 mM ATP, 0.15 mM NADPH, 5 mM sodium benzoate, 10 mM MgCl2 and enzyme in 0.05 M Tris buffer (pH 7.5) containing 1 mM EDTA, 1 mM DTT and 10% glycerol (vol/vol), in a final volume of 1.4 ml. The reference cuvette contained all components except benzoate. Reactions were initiated by adding enzyme, and were monitored by recording the absorption decrease at 340 nm at 25° C. with a Shimadzu UV-2010PC scanning spectrophotometer. One unit of the enzyme was defined as the amount of enzyme that catalyzed the reduction of 1 µmol of benzoate to benzaldehyde.min^−1 under standard assay condition. Protein concentrations were measured by the Bradford protein microassay (4) with bovine serum albumin as the standard.

Data set [2] deals with E. coli BL21-CodonPlus(DE3)-RP carrying pHAT-305. In words: In vivo whole cell reactions. Format: cell-based. The settings on record: IPTG-induced cultures, 1 mg/ml substrate acid. The procedure: In vivo whole cell reactions were typically conducted with 100 ml cultures of E. coli BL21-CodonPlus®(DE3)-RP carrying pHAT-305. Cultures were induced by 1 mM IPTG for 4 hrs before receiving 1 mg/ml of benzoic acid, vanillic acid, or ferulic acid.
Samples of approximately 2 mL were removed at various time intervals, sample pH was adjusted to pH 2.0 with 6N HCl, and samples were extracted with 1 ml ethyl acetate, and centrifuged for 2 min at 1,000×g. Organic phases were removed and used to spot silica gel GF254 TLC plates for analysis, and comparison with authentic standards of benzaldehyde, vanillin and coniferaldehyde. For metabolite isolation, reactions were stopped by adjustment of mixtures to pH 2.0 with 6N HCl, and extracted three times with half-volumes of ethyl acetate. After removal of solvent by rotary evaporation, reduction products were purified by preparative TLC for analysis and comparison with authentic standards.

In general, Km refers to the concentration of substrate that gives half-maximal velocity.

As for `Nc1ncnc2c1ncn2[C@@H]1O[C@H](COP(=O)(O)OP(=O)(O)OP(=O)(O)O)[C@@H](O)[C@H]1O` [ATP], in data set [1], the Michaelis-Menten constant (Km) is 69 ± 6.6 µM.
Still for that read-out and setting: the result for `NC(=O)C1=CN([C@@H]2O[C@H](COP(=O)(O)OP(=O)(O)OC[C@H]3O[C@@H](n4cnc5c(N)ncnc54)[C@H](OP(=O)(O)O)[C@@H]3O)[C@@H](O)[C@H]2O)C=CC1` [NADPH] reads 57 ± 3.6 µM.
Consider `O=C(O)c1ccccc1` [benzoate, benzoic acid], for which the “in vivo transformation by whole cells” value in data set [2] is listed as “quickly converted to benzyl alcohol”.
As for `COc1cc(/C=C/C=O)ccc1O` [coniferyl aldehyde], the “in vivo transformation by whole cells” value in data set [2] is recorded as “converted to their corresponding alcohols”.
Consider `COc1cc(C=O)ccc1O` [vanillin], for which, in data set [2], the “in vivo transformation by whole cells” value is recorded as “converted to their corresponding alcohols”.

B1: HAT-CAR: HAT-tagged recombinant Nocardia carboxylic acid reductase fusion protein expressed in E. coli from pHAT-305 (protein)
chain: AVDSPDERLQRRIAQLFAEDEQVKAARPLEAVSAAVSAPGMRLAQIAATVMAGYADRPAAGQRAFELNTDDATGRTSLRLLPRFETITYRELWQRVGEVAAAWHHDPENPLRAGDFVALLGFTSIDYATLDLADIHLGAVTVPLQASAAVSQLIAILTETSPRLLASTPEHLDAAVECLLAGTTPERLVVFDYHPEDDDQRAAFESARRRLADAGSSVIVETLDAVRARGRDLPAAPLFVPDTDDDPLALLIYTSGSTGTPKGAMYTNRLAATMWQGNSMLQGNSQRVGINLNYMPMSHIAGRISLFGVLARGGTAYFAAKSDMSTLFEDIGLVRPTEIFFVPRVCDMVFQRYQSELDRRSVAGADLDTLDREVKADLRQNYLGGRFLVAVVGSAPLAAEMKTFMESVLDLPLHDGYGSTEAGASVLLDNQIQRPPVLDYKLVDVPELGYFRTDRPHPRGELLLKAETTIPGYYKRPEVTAEIFDEDGFYKTGDIVAELEHDRLVYVDRRNNVLKLSQGEFVTVAHLEAVFASSPLIRQIFIYGSSERSYLLAVIVPTDDALRGRDTATLKSALAESIQRIAKDANLQPYEIPRDFLIETEPFTIANGLLSGIAKLLRPNLKERYGAQLEQMYTDLATGQADELLALRREAADLPVLETVSRAAKAMLGVASADMRPDAHFTDLGGDSLSALSFSNLLHEIFGVEVPVGVVVSPANELRDLANYIEAERNSGAKRPTFTSVHGGGSEIRAADLTLDKFIDARTLAAADSIPHAPVPAQTVLLTGANGYLGRFLCLEWLERLDKTGGTLICVVRGSDAAAARKRLDSAFDSGDPGLLEHYQQLAARTLEVLAGDIGDPNLGLDDATWQRLAETVDLIVHPAALVNHVLPYTQLFGPNVVGTAEIVRLAITARRKPVTYLSTVGVADQVDPAEYQEDSDVREMSAVRVVRESYANGYGNSKWAGEVLLREAHDLCGLPVAVFRSDMILAHSRYAGQLNVQDVFTRLILSLVATGIAPYSFYRTDADGNRQRAHYDGLPADFTAAAITALGIQATEGFRTYDVLNPYDDGISLDEFVDWLVESGHPIQRITDYSDWFHRFETAIRALPEKQRQASVLPLLDAYRNPCPAVRGAILPAKEFQAAVQTAKIGPEQDIPHLSAPLIDKYVSDLELLQLL
modifications: left off: small tags and cut ends
On to B1, for which the Specific activity is listed as 0.009 U/mg in data set [1] (purification step: Crude extract), 0.09 U/mg in data set [1] (purification step: DEAE Sepharose) and 0.066 U/mg in data set [1] (purification step: Talon Matrix). Besides, in data set [1] (purified HAT-CAR), the “specific CAR activity” value is recorded as 0.11 μmol.min^−1.mg-^−1 protein. Also, in data set [1] (purified recombinant HAT-CAR), the Vmax is recorded as 0.135±0.004 μmol.min^−1.mg^−1 protein.
